The values that follow come from patent US11179348B2, “Combination comprising pterostilbene for the treatment of cancer” (FUNDACIÓN UNIVERSIDAD CATÓLICA DE VALENCIA SAN VICENTE …, priority 2015, dated 2021).

The test system of one assay is MCF-7 cells. Put plainly: GSH levels and glutathione- and oxidative stress-related enzyme activities in MCF-7 cells growing in vivo. Details: species or system human. The note with it: MCF-7, in vivo Pter, day 28. As to the method: To measure enzyme activity, isolated tumor cells were homogenized in 0.1 M phosphate buffer (pH 7.2) at 4° C. GCL and GSS activities were measured as described previously (Obrador, E. et al. Hepatology 35, 74-81 (2002)). GPX (selenium dependent) activity was measured as described by Flohé and Gunzler (Flohe, L. & Gunzler, W. A. Methods Enzymol 105, 114-121 (1984)) using H2O2 as a substrate. GSR activity was determined as described by Akerboom and Sies (Akerboom, T. P. et al, Bull Eur Physiopathol Respir 17 Suppl, 221-227 (1981)). GGT activity was measured as described previously (Obrador, E. et al. Hepatology 35, 74-81 (2002)). GST activity was measured using an assay kit from Sigma. TXNRD activity, defined by the concentration of sodium-lipoate (disulfide) reduced to dehydrolipoate (dithiol) per milligram protein, was measured as previously described (Javvadi, P. et al. Cancer Res 70, 1941-1950 (2010)). SOD activity was measured as described by Flohé and Otting (Flohe, L. & Otting, F. Methods Enzymol 105, 93-104 (1984).) using 2 mM cyanide in the assay medium to distinguish mangano-type enzyme (SOD2) from the cuprozinc type (SOD1). CAT activity was analyzed as described by Aebi (Aebi, H. Methods Enzymol 105, 121-126 (1984)). NOX activity was measured by chemiluminescence following the methodology of Wind et al. (Wind, S. et al. Comparative pharmacology of chemically distinct NADPH oxidase inhibitors. Br J Pharmacol 161, 885-898 (2010)). Protein concentration was determined with the Pierce BCA protein assay (Fisher Scientific, Waltham, Mass.).
GSH, GSSG, NADP^+ and NADPH Determination.
GSH and GSSG were determined, following procedures previously described (Obrador, E. et al. PLoS One 9, e96466 (2014)), by LC/MS using the same equipment described above for pterostilbene determination. Cell processing was performed according to published methodology, where rapid N-ethylmaleimide derivatization was used to prevent GSH auto-oxidation (Asensi, M. et al. Anal Biochem 217, 323-328 (1994)). NADP^+ and NADPH were quantitated using an assay kit from Sigma (St. Louis, Mo.).
Isolation of Tumor Cells from Mouse Xenografts Using Enzymatic Digestion and a double Ficoll gradient.
To maximize the amount of isolated cells, avoiding the use of RFP-transfected cells and subsequent laser microdissection, an alternative methodology was set up. To maximize cell yield and viability the following combination of enzymes was used: collagenase III (200 U/ml; Sigma-Aldrich), DNase I (200 U/ml; Sigma-Aldrich) and trypsin (5 mg/ml; Invitrogen), and a non-enzymatic dissociation buffer (NEDB, Invitrogen). Briefly, mice were killed, and tumors were removed (avoiding skin, muscle and fat) into cold culture media and processed immediately. The tumors were minced into 1-3 mm fragments, which were then incubated with the dissociation solution (see above) for 30 min at 37° C. The tumor fragments were mixed up and down every 10 min using a […] micropipette with a tip cut to a diameter adapted to tissue fragment size. After each incubation period, the fragments were filtered through a […] nylon mesh cell strainer (BD Biosciences, San Diego, Calif., USA). The released cells were centrifuged at 1200 r.p.m. for 2 min and stored in cold CO2-independent medium with 30% FCS at […]. Fresh dissociation solution was added to the remaining tissue fragments for 30 min. Dissociation was stopped when no additional cells were released. The fragments were pushed through a sieve and all cells from all incubation periods were pooled and counted.
The dissociated cells were layered onto a double Ficoll gradient (Histopaque; Sigma-Aldrich; densities 1.077 and 1.119) and spun at 700 g for 30 min at room temperature. Cells removed from both interfaces were pooled and washed two times in CO2-independent medium and stored at 4° C. Debris and red blood cell elimination was improved with the dual-density gradient. […]

The next assay concerns BxPC-3 cells. The experiment in a line: Effect of Pter on BxPC-3 cell growth or viability in vitro. In kind it is cell-based, human. The conditions noted are these: 15 μM Pter×60 min every 24 h. On the procedure: FIG. 11. In vivo effect of Pter on human pancreatic cancer growth. […] For the doses of 20 and 40 mg Pter/kg only the point at the end of the treatment period is shown.
(§1) Human A2058, MeWo and MelJuso melanoma cells, and mouse AtT-20 pituitary corticotroph tumor cells were from the American Type Culture Collection (ATCC). Human HEMa-LP epidermal melanocytes were from Life Technologies (Grand Island, N.Y.). Human MDA-MB-231 (triple negative: ER−, PR−, HER2−) and MCF-7 (ER+, PR+, HER2−) breast adenocarcinoma, A549 lung adenocarcinoma (NSCLC), HepG2 hepatocellular carcinoma, LNCaP (AR+) and PC-3 (AR−) prostate adenocarcinoma, SK-OV-3 epithelial ovarian carcinoma, and HT-29 and Caco-2 colorectal carcinoma cells were from the American Type Culture Collection. Cells were grown in Dulbecco's modified Eagle's medium (DMEM) (Invitrogen, San Diego, Calif.), pH 7.4, supplemented with 10% heat-inactivated FCS (Biochrom KG, Berlin, Germany), 100 units/ml penicillin and 100 μg/ml streptomycin. Cells were plated, at a density of 20,000 cells/cm2, and cultured at 37° C. in a humidified atmosphere with 5% CO2. […] Cell numbers were determined using a Coulter Counter (Coulter Electronic Inc., Miami, Fla.). […] Cellular viability was assessed as previously reported (Mena, S. et al. Clin Cancer Res 13, 2658-2666 (2007)), by measuring trypan blue exclusion and leakage of lactate dehydrogenase activity.

Assay [1] has as its system human breast, lung, liver, prostate, ovarian, and colorectal cancer cell lines. The experiment in a line: Effect of Pter on growth or viability in vitro of breast, lung, liver, prostate, ovarian and colorectal tumor cell lines. The conditions noted are these: any of the tumor cell lines used (FIG. 15); 15 μM Pter×60 min every 24 h. In kind it is cell-based.
Excerpt: FIG. 15. In vivo effect of Pter on human breast, lung, liver, prostate, ovarian, and colorectal cancer growth. […] For the lower and maximum Pter dose used, in each case, only the endpoint of the treatment period is shown.
as §1, with “streptomycin.” for “streptomycin. Cells were plated, at a density of 20,000 cells/cm2, and cultured at 37° C. in a humidified atmosphere with 5% CO2.”

The test system of assay [2] is Caco-2 colorectal carcinoma. The experiment in a line: In vivo growth of Caco-2 colorectal cancer xenografts. Details: species or system human. The note with it: Caco-2, day 28.
The test system of another assay is MeWo melanoma. The experiment in a line: In vivo growth of MeWo melanoma xenografts in nu/nu mice. Details: species or system human.

The structures appear in SMILES notation. Marks after values point to notes of the source that are not given here.

`COc1cc(/C=C/c2ccc(O)cc2)cc(OC)c1` [Pter, trans-3,5-dimethoxy-4′-hydroxystilbene]: in the assay with MCF-7 cells, the CAT was found to be 0.5 ± 0.2 mU/10^6 cells, the GCL was 166 ± 34 mU/10^6 cells, the GSH came out at 30.6 ± 4.2 nmol/10^6 cells and the GSS turned out to be 25.2 ± 5.6 mU/10^6 cells. In the assay with MCF-7 cells, the GSSG is 0.3 ± 0.1 nmol/10^6 cells, the SOD1 is given as 1.0 ± 0.08 U/10^6 cells and the SOD2 was 0.12 ± 0.05 U/10^6 cells. The “cell growth or viability in vitro” value in the assay with BxPC-3 cells is “did not affect”. Further, the “cell growth or viability in vitro” value in assay [1] is given as “did not affect”. Besides, the Tumor vol. in assay [2] was 795 ± 285 mm^3. The Tumor vol. in the assay with MeWo melanoma (MeWo-RFP, 35 days after inoculation, Pter 30 mg/kg i.v. every 48 h and/or CRC infusion 0.3 μg/h) is reported as 167 ± 53* mm^3. Moreover, the “inhibition of tumor growth” value in the assay on MeWo melanoma (Mewo, day 42, 30 mg Pter/kg i.v. every 48 h, vs controls) was roughly 65%.
